{"source": "ChEMBL document CHEMBL1128316", "about": "“Alkane-6,8-diol: inhibitor of tumor promotion in two-stage carcinogenesis in mouse skin” (1995)", "key": {"Mus musculus": {"test_system": "Mus musculus", "test": "Inhibition of TPA-induced inflammatory ear edema in mice(compound was applied 30 min before TPA […],Ear thickness was determined 6 hr after TPA treatment)", "type": "functional"}, "[1]": {"test": "Inhibitory ratio at 1.0 mg/ear", "type": "functional"}}}
{"smiles": "CCCCCCCCCCCCCCCCCCCC(O)CC(O)CCCCC", "note": "(stereo unspecified)", "values": [{"measurement": "ID50", "setting": "Mus musculus", "result": 0.5, "unit": "mg ear-1"}, {"measurement": "Ratio", "setting": "[1]", "result": "<82"}]}
{"smiles": "CCCCCCCC(O)CC(O)CCCCC", "note": "(stereo unspecified)", "values": [{"measurement": "Ratio", "setting": "[1]", "result": 23}]}
{"smiles": "CCCCCCCCCCCCCCCCCCCCCC(O)CC(O)CCCCC", "note": "(stereo unspecified)", "values": [{"measurement": "ID50", "setting": "Mus musculus", "result": 0.4, "unit": "mg ear-1"}, {"measurement": "Ratio", "setting": "[1]", "result": "<85"}]}
{"smiles": "C[C@]12CCC(=O)C=C1CCC1[C@@H]2[C@@H](O)C[C@@]2(C)[C@H]1CC[C@]2(O)C(=O)CO", "note": "(single isomer, unassigned) [HYDROCORTISONE]", "values": [{"measurement": "ID50", "setting": "Mus musculus", "result": 0.03, "unit": "mg ear-1"}, {"measurement": "Ratio", "setting": "[1]", "result": "<99"}]}
{"smiles": "COc1ccc2c(c1)c(CC(=O)O)c(C)n2C(=O)c1ccc(Cl)cc1", "note": "[INDOMETHACIN]", "values": [{"measurement": "ID50", "setting": "Mus musculus", "result": 0.3, "unit": "mg ear-1"}, {"measurement": "Ratio", "setting": "[1]", "result": "<96"}]}
{"smiles": "O=c1c(O)c(-c2ccc(O)c(O)c2)oc2cc(O)cc(O)c12", "note": "[QUERCETIN]", "values": [{"measurement": "ID50", "setting": "Mus musculus", "result": 1.6, "unit": "mg ear-1"}, {"measurement": "Ratio", "setting": "[1]", "result": "<40"}]}
